From the NIST ThermoML archive (doi:10.1016/j.fluid.2013.06.028) come the findings set out here.

± gives the expanded uncertainty stated by the source.

This data set can be described thus: activity coefficient (dimensionless); of the first substance listed, at infinite dilution; xn = mol fraction of the nth substance listed. The following applies: 298 K; Liquid; Chromatography; x1 = 0.

On to `c1ccc2ccccc2c1` [naphthalene] + OCCO, for which the activity coefficient is 238 ± 51. `Cc1ccccc1` [toluene] + OCCO: the activity coefficient turned out to be 93 ± 12. In the case of `c1ccccc1` [benzene] + OCCO it was 32 ± 6; in that of `Ic1ccccc1` [iodobenzene] + OCCO, 42 ± 10; in that of `Brc1ccccc1` [bromobenzene] + OCCO, 45 ± 10. In the case of `Fc1ccccc1` [fluorobenzene] + OCCO it was 32 ± 10; in that of `Clc1ccccc1` [chlorobenzene] + OCCO, 40 ± 8.
